# Laboratory results published in US9133225B2, “Dual targeting anticancer agents” (priority 2013, dated 2015).
# Test system: HCT116 cells
# Assay: MTT cytotoxicity assay, HCT116
# Details: read-out: cytotoxicity IC50; HCT116, colon; MTT, 48 h treatment; spread in brackets
# From the text: (a) Dulbecco's Modified Eagle Medium (DMEM), Dulbecco's phosphate buffered saline (DPBS), fetal bovine serum (FBS) and 0.25% trypsin/EDTA solutions were purchased from Cellgro (Manassas, Va.). Penicillin-streptomycin solutions were purchased from Mediatech (Manassas, Va.). (b) HeLa (CCL-2TM) cells, A549, A2870, A2870/CP70, MCF-7, PC-3, and MRC-5 cells were purchased from American Type Culture Collection (ATCC, Manassas, Va., USA). (c) HCT116 cells were kindly donated by Laura Trudel (MIT). HeLa, A549, MCF-7, and MRC-5 cells were cultured using DMEM supplemented with 10% FBS and 1% penicillin-streptomycin. A2870, A2870/CP70, and PC-3 cells were cultured in RPMI supplemented with 10% FBS and 1% penicillin-streptomycin. HCT116 cells were cultured in McCoy's supplemented with 10% FBS and 1% penicillin-streptomycin. All cell-culture experiments were performed in the aforementioned media in an incubator operating at 37° C. and in the presence of a humidified atmosphere containing 5.0% CO2. Cells were harvested using a 0.25% trypsin/EDTA solution.
# The cytotoxicity of the compounds was assessed by means of the MTT assay (MTT=3-(4,5-dimethyl-2-thiazolyl)-2,5-diphenyl-2H-tetrazolium bromide). Typically, on day one, ˜1×10^3 cells were seeded into 96-well plates in 100 μL media per well. The last row of the plate was left empty as a control for background absorption. The cells were allowed to grow for 24 h in the incubator at 37° C. On day two, a series of drug dilutions in growth media were prepared immediately prior to cell treatment. The media in the wells of the 96 plates were replaced with 100 μL of growth media containing appropriate drug concentrations. The cells were treated for 48 h at 37° C. in the incubator. On day four, a stock solution of MTT (5 mg/mL in PBS buffer) was diluted with media so that, when 100 μL of the media was added to each well, 10 μL of MTT stock was applied. […] The optical density for each well at 550 nm was measured with a microplate reader.
structure (smiles),measurement,value
CC[O][Pt]([NH2])([NH2])([Cl])([Cl])[O]C(=O)CCC(=O)Oc1c(C)c(C)c2c(c1C)CCC(C)(CCCC(C)CCCC(C)CCCC(C)C)O2 (stereo not drawn) [Pt(IV)(α-TOS)(OEt)],IC50,1240 nM
